The assay concerns the target T1, GPR103 F25N-termA (Homo sapiens, UniProt Q96P65, F25A).
T1 construct: we used human full-length QRFPR-encoding plasmids; expressed in transfected cells; host or cells: HEK293 cells, pCAGGS vector
T1 sequence (Q96P65 1-431 F25A): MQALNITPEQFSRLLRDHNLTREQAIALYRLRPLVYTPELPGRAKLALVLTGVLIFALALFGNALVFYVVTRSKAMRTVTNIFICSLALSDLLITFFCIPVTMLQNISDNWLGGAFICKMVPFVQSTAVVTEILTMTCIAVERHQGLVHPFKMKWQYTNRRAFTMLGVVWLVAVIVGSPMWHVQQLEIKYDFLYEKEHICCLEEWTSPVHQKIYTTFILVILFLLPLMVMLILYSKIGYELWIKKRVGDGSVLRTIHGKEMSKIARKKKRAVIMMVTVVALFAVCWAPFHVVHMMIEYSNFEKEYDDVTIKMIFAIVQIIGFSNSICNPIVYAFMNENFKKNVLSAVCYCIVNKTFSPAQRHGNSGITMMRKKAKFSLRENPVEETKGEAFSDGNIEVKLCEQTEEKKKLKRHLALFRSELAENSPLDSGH
The assay is described as follows: TGFα shedding assay; Exp. level >WT (1:1). The assay is classed as cell-based. As for the experimental part: For the TGFα shedding assay and the flow cytometry analysis, we used human full-length QRFPR-encoding plasmids. Specifically, GPR103 was N-terminally modified with an HA signal sequence followed by a FLAG epitope and then a flexible linker ([…]; the FLAG epitope is underlined) and inserted into the pCAGGS vector. Plasmid encoding GPR103 mutants were generated using Quickchange Site-Directed Mutagensis kit (Agilent).
The TGFα shedding assay was performed as described previously with minor modifications. Plasmid transfection was performed in a 6-well plate with a mixture of 500 ng (per well in a 6-well plate) AP-TGFα-encoding plasmid and 200 ng GPR103-encoding plasmid. After 1-day culture, the transfected cells were harvested by trypsinization, pelleted by centrifugation at 190 × g for 5 min, and washed once with 5 mM HEPES (pH 7.4)-containing Hank’s Balanced Salt Solution (HBSS). After centrifugation, the cells were resuspended in 8 mL of the HEPES-containing HBSS. The cell suspension was seeded in a 96-well culture plate (cell plate) at a volume of 90 μL (per well hereafter) and incubated in a 37 °C incubator with 5% CO2 for 30 min. […] After spinning the cell plates at 190 × g for 2 min, 80 μL of conditioned media was transferred to an empty 96-well plate (conditioned media (CM) plate). Then, 80 μL of AP reaction solution (10 mM p-nitrophenylphosphate (p-NPP), 120 mM Tris-HCl (pH 9.5), 40 mM NaCl, and 10 mM MgCl2) was dispensed into the cell plates and the CM plates. Absorbance at 405 nm of the plates was measured using a microplate reader (SpectraMax 340 PC384, Molecular Devices) before and after 1-h incubation at room temperature. Ligand-induced AP-TGFα release was calculated by subtracting spontaneous AP-TGFα release signal from ligand-induced AP-TGFα release signal. The AP-TGFα release signals were fitted to a four-parameter sigmoidal concentration–response curve, using the Prism 10 software (GraphPad Prism). For each replicate experiment, the pEC50 parameter (negative logarithmic values of EC50 values) of the individual GPR103 mutants were normalized to that of the wild-type GPR103 performed in parallel, and resulting ∆pEC50 values were used to denote ligand response activity of the mutants. […]
Exp. le vel: WT (1:5 0)Exp. le vel: WT (1:5 0)Exp. le vel: WT (1:5 0)Exp. le vel: WT (1:2 0)Exp. le vel: WT (1:2 0)Exp. le vel: WT (1:1 0) […]
L1 4N - t e r mA F2 5N - t e r mA I 2 6N - t e r mA Y 2 9N - t e r mA C 9 82 .5 7A T10 22 .6 1A Exp . l eve l: WT (1 :5)Exp . l evel : >WT (1 :1)Exp. le vel: WT (1:2 0)Exp. le vel: WT (1:2 0)Exp. le vel: WT (1:5 0)Exp . l eve l: WT (1 :1) […]
Exp. le vel: WT (1:1 0)Exp. le vel: WT (1:2 0) C 1 1 83 .2 5AExp. le vel: WT (1:5 0)Exp. le vel: WT (1:5 0)Exp. le vel: WT (1:2 0)Exp . l eve l: WT (1 :5) […]
Exp. le vel: WT (1:5 0)Exp. le vel: WT (1:1 0)Exp. le vel: WT (1:5 0) E203ECL2AExp . l evel : >WT (1 :1)Exp. le vel: WT (1:5 0)Exp. le vel: WT (1:5 0) […]
Exp . l eve l: WT (1 :1) F28Exp. le vel: WT (1:5 0) C 2 8 56 .4 7AExp. le vel: WT (1:2 0) WExp. le vel: WT (1:2 0) F28Exp. le vel: WT (1:5 0)Exp . l evel : >WT (1 :1) […]
Exp. le vel: WT (1:5 0)Exp. le vel: WT (1:5 0) C 3 2 77 .4 8AExp . l eve l: WT (1 :5)Exp . l evel : >WT (1 :1)Exp . l evel : >WT (1 :1) […]
Suppl eme nt ary Figure 1 | Mutational analysis of GPR103. […]
mutants. Data are presented as mean values ± SEM, normally n=3-5; dots), each performed in triplicate. b-d Cell-surface expression (b) and QRFP26-in-duced activation of GPR103 (c, d) were analyzed by the flow cytometry and the TGFα shedding assay, respectively. From the concentration–response curves (a), Emax (c) and ΔpEC50 (d) values relative to the wild type were calculated. Colors in the mutant bars indicate an expression level matching to that of titrated wild type. Statistical analyses were performed using the ordinary one-way ANOVA followed by Dunnett tests with the expression-matched […]

Read-outs that look alike come from different tables or passages of the source. No end group written: not given here.

The EC50 is the concentration that produces a half-maximal response.

Regarding TSGPLGNLAEELNGYSRKKGGFSFRF-NH2 [QRFP26], the Emax reads like this: (Exp. #1) 108.31 % WT; (Exp. #2) 103.77 % WT; (Exp. #3) 108.41 % WT; (mean, read-out: Emax) 107%; (n = 3, read-out: Emax) 110 ± 1.2%. Where the note is “n = 3”, this substance gave an EC50 of 79.4 nM.

Values taken from paper PMC11187126, “Structure and dynamics of the pyroglutamylated RF-amide peptide QRFP receptor GPR103” (Nature Communications, 2024).
